Key:
FaDu cells [1] = experiment: In vitro inverse oxygen dependent entrapment of ACN, click chemistry fluorescence; type: cell-based, human
Description: The Click-IT reaction cocktail (Molecular Probes) was made up according to the manufacturer's directions using a 1:5000 dilution of the 2 mg/ml Alexafluor 555 or 594 conjugated alkyne stock (Molecular Probes). The reaction cocktail was used within 15 minutes of preparation. All reactions were done at room temperature in the dark.
Subconfluent FaDu cells were trypsinized, and approximately 3-5×10^5 cells were seeded in 35 mm tissue culture plates containing sterilized […] glass coverslips. Cells were allowed to grow overnight, and treated with different concentrations of ACN (1 μM, 10 μM and 100 μM) under normoxia (20% Oxygen), hypoxia (1% Oxygen) or anoxia (0% Oxygen) for 6 hours. Hypoxia and anoxia were achieved using an in house de-gassing system. Post-treatment, all steps were carried out at room temperature. Cells were washed three to five times with 1×PBS, fixed in 2% paraformaldehyde (PFA) for 20 minutes, and washed again three times with 1×PBS. The fixed cells were then blocked and permeabilized with 1% BSA in 1×PBS containing 0.1% Triton-100 for 20 minutes, followed by incubation with click cocktail containing Alexafluor 594 conjugated alkyne for 30 minutes. Subsequently cells were washed and stained with Hoechst 33342 (1:10000 dilution in PBS, Life Technologies) for 5 minutes before mounting them on glass slides (Fluoroshield Mounting Medium, abcam). The prepared slides were kept at 4° C. until imaged. Images were obtained by with a Plan-Apochromat 40X/1.3 Oil DIC lens on a Zeiss 710 confocal microscope using Zen 2011 software.

FaDu cells [2] = experiment: Comparison of hypoxia selective uptake of ACN and Pimonidazole in vitro; type: cell-based, human
Description: FaDu cells were grown on coverslips (as described above) and treated simultaneously with 100 μM ACN and 100 μM Pimonidazole. The cells were subsequently exposed to normoxic (20% Oxygen), hypoxic (1% Oxygen) or anoxic (0% Oxygen) conditions for 6 hours, and fixed in 2% PFA. Standard Pimonidazole IHC was performed as described elsewhere using an Alexafluor 647 labelled secondary antibody. Click chemistry was performed as previously described using an Alexafluor 555 conjugated alkyne followed by nuclear staining with Hoechst. Mounted coverslips on glass slides were imaged as described earlier.

FaDu cells [3] = experiment: Retention profile of ACN in hypoxic cells following re-oxygenation; type: cell-based, human; conditions: 100 μM
Description: After bioreductive activation under hypoxia, nitroimidazole reactive species (nitroradical anion) bind to cellular nucleophiles to form drug-protein adducts. To evaluate how fast these adducts are metabolized, we treated FaDu cells with 100 μM of ACN under normoxia or anoxia for 6 hours, and exposed them to subsequent re-oxygenation. Cells were fixed after 0 hr, 1 hr, 3 hr, 6 hr and 18 hr of re-oxygenation. Click chemistry was performed on fixed cells as previously described.

FaDu cells [4] = experiment: Hypoxic cytotoxicity of ACN, colony formation assay; type: cell-based, human; conditions: concentrations up to 100 μM, 24 h, normoxia (20% O2) or hypoxia (1% O2 and <0.1% O2)
Description: (§1) Human head and neck squamous cell carcinoma cell line, FaDu, was purchased from American Type Culture Collection (ATCC HTB-43). FaDu cells were cultured in Dulbecco's Modified Eagle's medium/Nutrient Mixture F-12 media supplemented with 10% Fetal bovine serum, 2 mM L-glutamine and 10% Penicillin Streptomycin. Cells were cultured in a humidified incubator at 37° C. with 5% CO2.
(§2) Hypoxic cytotoxicity of ACN was evaluated using colony formation assay. FaDu cells were seeded on 60 mm glass petri dishes (in triplicates) at a density of 300 cells per plate. Cells were allowed to attach for 24 hours, followed by treatment with 1 μM, 10 μM and 100 μM of freshly dissolved ACN for 24 hours under normoxia (20% O2) or hypoxia (1% O2 and <0.1% O2); 100 μM DMSO was used as vehicle control. Cells were allowed to grow and form colonies for 14 days. Colonies were stained with crystal violet, counted and plotted as percentage of vehicle conditions; error bars show standard error of the means. […] Colonies were stained with crystal violet, counted and plotted as percentage of vehicle (DMSO) controls; error bars represent standard error of the means. […] 1 hr following IR, cells were trypsinized, counted, and seeded on 24 well plates in triplicates at a density of 50,000 cells per well. Cells were trypsinized 1, 3, 5 and 7 days after re-plating, and counted with a Z2 coulter particle counter.

FaDu xenograft tumors = experiment: Assessment of ACN as a hypoxia tracer in tumor-bearing mice; type: in vivo, BALB/c nude mice; conditions: 80 mg/Kg intraperitoneally, 2 hours post-injection
Description: Female BALB/c nude mice (Charles River Laboratories) aged 6 weeks were used and cared for according to the CCAC guidelines. We used a biflanked sub-cutaneous tumor model where the tumor in the left flank was untreated (control) and the tumor in the right flank served as the ‘treatment’ group. We subcutaneously injected 6×10^6 FaDu cells in 0.1 ml of sterile 0.9% NaCl into the upper right flank to form palpable tumors. The tumors were measured daily until the volume reached 10 mm3. The mice were divided into 4 groups and injected intraperitoneally in 0.15 ml 0.9% saline with: 1-80 mg/Kg ACN, 2-80 mg/Kg pimonidazole (Hypoxyprobe), 3-80 mg/Kg ACN:pimonidazole in a 1:1 ratio and 4-0.9% saline control. Mice were sacrificed 2 hours post-injection, tumors removed and frozen in OCT. Seven micron serial sections were taken of each tumor, dried and stored at −80° C.
Tissue sections were air dried for 25 minutes, fixed for 5 minutes in −20° C. acetone; air dried 25 minutes and blocked in PBS with 1% BSA for 20 minutes. Sections were incubated with primary antibodies for small vessel endothelium [1:100 rabbit anti-CD34 (abcam)] or hypoxia [1:100 rabbit anti-pimonidazole Hypoxyprobe)] for 2 hours at room temperature, followed by 3 five minute washes in 1×PBS. […]

FaDu cells [5] = experiment: Radiosensitization potential of ACN, colony formation assay with 5 Gy IR; type: cell-based, human; conditions: 100 μM ACN and 5 Gy IR, normoxia or hypoxia (<0.1% O2)
Description: as §1, §2

FaDu cells [6] = experiment: Cell proliferation assay (cell counts); type: cell-based, human; conditions: 100 μM, alone or in combination with 5 Gy IR
Description: as §1, §2

For `[N-]=[N+]=NCC1OC(n2ccnc2[N+](=O)[O-])[C@H](O)[C@H]1O` (some centres unmarked) [ACN, 5’-azido-arabinofuranosyl-2-nitroimidazole], the “entrapment in cells versus oxygen level (click signal)” value (FaDu cells [1]; 1, 10, 100 μM, 6 h, normoxia, hypoxia, <0.1% O2) was “entrapped in FaDu cells in an inverse oxygen dependent manner”, the “dose dependence of entrapment in hypoxic cells” value (FaDu cells [1]; 1-100 μM, hypoxic cells) was “dose dependent manner” and the “entrapment in well oxygenated or normoxic cells” value (FaDu cells [1]; normoxia (20% Oxygen)) was “minimal to almost no entrapment”. For the same compound, the “staining detected by oxygen condition” value (FaDu cells [2]; 100 μM of each compound, 6 h) was “detected in oxygen deprived cells”, the “sub-cellular distribution of signal” value (FaDu cells [2]; hypoxic <0.1% O2 cells, 100 μM) was “higher nuclear signal” and the “time after re-oxygenation up to which signal for ACN-protein adducts could be detected” value (FaDu cells [3]; 6 h anoxia then re-oxygenation) was “up to 6 hours”. For the same compound, the “signal after 18 hours re-oxygenation” value (FaDu cells [3]; 18 hours re-oxygenation) was “very faint signal”, the “hypoxia-selective cytotoxicity (colony formation)” value (FaDu cells [4]) was “did not show any hypoxia-selective cytotoxicity” and the “localization in tumor sections” value (FaDu xenograft tumors) was “co-localizes in hypoxic regions of FaDu xenograft tumors”. The “hypoxic radiosensitization (colony formation)” value (FaDu cells [5]) was “No hypoxic radiosensitization was observed” and the “cell counts compared to vehicle control” value (FaDu cells [6]) was “did not generate significant difference in cell counts”.

Reference: patent US12600742B2, “Markers, conjugates, compositions and methods for hypoxia imaging, mapping, and therapy” (WWIKY BIOSCIENCES INC., priority 2017, dated 2026)
